The values below come from PMC3984115 (PLoS ONE, 2014).

Where a SMILES comes first, the peptide text is derived from it. Bridges are numbered along the chain shown (N, C = ends). [ ]: non-standard residue; d: D form. Hyp = O=C(O)[C@@H]1C[C@@H](O)CN1

What all share (test): cell-based
One assay has as its target T1, human α6/α3β4 nAChR (Homo sapiens, UniProt P30926+P32297+Q15825).
T1 construct: expressed in transfected cells; host or cells: Xenopus laevis oocytes (cRNA injection, 1:1 ratio)

For another assay, the target named is T2, human α6/α3β2β3 nAChR (Homo sapiens, UniProt P17787+P32297+Q05901+Q15825).
T2 construct: expressed in transfected cells; host or cells: Xenopus laevis oocytes (cRNA injection, 1:1 ratio)
T2 sequence (P17787 whole entry, looked up): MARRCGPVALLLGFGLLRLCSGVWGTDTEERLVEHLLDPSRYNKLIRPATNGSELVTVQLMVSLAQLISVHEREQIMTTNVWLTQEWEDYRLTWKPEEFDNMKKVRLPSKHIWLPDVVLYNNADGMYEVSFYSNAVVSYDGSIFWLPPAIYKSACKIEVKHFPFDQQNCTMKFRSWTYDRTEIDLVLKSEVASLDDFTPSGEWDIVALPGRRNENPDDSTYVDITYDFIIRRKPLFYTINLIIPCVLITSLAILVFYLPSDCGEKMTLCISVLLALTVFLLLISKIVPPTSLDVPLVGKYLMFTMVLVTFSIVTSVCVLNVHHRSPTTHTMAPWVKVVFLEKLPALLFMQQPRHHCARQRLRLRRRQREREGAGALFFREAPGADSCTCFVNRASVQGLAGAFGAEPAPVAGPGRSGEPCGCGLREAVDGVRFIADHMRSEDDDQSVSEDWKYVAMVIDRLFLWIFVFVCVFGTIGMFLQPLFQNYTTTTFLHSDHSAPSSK
T2 sequence (P32297 whole entry, looked up): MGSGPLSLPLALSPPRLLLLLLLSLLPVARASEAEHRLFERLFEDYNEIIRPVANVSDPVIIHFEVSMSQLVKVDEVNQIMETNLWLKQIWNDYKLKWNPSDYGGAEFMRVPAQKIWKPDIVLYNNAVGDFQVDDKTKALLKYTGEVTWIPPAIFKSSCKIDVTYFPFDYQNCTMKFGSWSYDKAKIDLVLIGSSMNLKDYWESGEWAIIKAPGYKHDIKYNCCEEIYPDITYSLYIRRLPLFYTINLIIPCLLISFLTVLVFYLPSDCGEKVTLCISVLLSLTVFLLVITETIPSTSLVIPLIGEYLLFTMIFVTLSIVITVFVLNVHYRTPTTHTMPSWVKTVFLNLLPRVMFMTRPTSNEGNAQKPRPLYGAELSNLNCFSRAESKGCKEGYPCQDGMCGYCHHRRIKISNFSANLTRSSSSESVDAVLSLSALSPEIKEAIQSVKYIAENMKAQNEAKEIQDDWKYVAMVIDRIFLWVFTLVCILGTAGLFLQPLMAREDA
T2 sequence (Q05901 whole entry, looked up): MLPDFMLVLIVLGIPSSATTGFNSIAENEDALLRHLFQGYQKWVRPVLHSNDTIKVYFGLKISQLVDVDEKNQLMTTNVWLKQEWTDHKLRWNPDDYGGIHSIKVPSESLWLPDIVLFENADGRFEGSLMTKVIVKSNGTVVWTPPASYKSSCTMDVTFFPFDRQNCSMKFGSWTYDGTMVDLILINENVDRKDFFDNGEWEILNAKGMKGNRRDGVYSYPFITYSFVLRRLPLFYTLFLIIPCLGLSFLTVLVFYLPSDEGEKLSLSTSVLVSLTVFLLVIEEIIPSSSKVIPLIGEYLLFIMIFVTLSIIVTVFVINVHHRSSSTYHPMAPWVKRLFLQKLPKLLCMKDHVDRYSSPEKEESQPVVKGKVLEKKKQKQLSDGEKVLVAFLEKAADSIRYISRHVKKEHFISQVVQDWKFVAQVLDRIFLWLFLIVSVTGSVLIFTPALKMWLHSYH
T2 sequence (Q15825 whole entry, looked up): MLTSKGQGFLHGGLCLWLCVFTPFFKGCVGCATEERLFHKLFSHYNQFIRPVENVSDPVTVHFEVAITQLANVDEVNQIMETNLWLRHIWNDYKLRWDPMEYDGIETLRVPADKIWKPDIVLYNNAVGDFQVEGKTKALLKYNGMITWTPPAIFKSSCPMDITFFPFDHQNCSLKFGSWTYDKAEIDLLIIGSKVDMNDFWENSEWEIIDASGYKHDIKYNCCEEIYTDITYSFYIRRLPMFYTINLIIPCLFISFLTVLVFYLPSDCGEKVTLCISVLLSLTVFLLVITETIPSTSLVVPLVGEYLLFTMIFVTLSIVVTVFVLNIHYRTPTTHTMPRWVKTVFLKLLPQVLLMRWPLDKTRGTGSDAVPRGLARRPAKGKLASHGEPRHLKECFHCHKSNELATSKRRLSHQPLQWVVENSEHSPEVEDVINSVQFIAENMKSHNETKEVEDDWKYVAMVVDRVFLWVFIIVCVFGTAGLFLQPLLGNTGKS

The target in a further assay is T3, human α3β4 nAChR (Homo sapiens, UniProt P30926+P32297).
T3 construct: expressed in transfected cells; host or cells: Xenopus laevis oocytes (cRNA injection, 1:1 ratio)
T3 sequence (P32297 32-505 limits assumed): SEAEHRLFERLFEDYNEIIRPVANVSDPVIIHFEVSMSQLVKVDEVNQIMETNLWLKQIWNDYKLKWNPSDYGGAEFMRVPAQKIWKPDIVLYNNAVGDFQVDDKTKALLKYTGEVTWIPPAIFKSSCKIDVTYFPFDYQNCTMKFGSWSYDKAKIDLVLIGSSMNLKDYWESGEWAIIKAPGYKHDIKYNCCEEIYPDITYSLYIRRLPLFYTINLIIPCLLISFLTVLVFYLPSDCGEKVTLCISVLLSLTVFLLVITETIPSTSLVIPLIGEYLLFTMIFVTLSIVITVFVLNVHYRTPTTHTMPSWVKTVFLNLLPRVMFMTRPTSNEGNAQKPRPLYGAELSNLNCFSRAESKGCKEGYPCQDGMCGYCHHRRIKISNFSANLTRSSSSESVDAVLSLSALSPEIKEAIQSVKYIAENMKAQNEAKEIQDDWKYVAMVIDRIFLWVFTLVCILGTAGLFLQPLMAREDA
T3 sequence (P30926 22-498 limits assumed): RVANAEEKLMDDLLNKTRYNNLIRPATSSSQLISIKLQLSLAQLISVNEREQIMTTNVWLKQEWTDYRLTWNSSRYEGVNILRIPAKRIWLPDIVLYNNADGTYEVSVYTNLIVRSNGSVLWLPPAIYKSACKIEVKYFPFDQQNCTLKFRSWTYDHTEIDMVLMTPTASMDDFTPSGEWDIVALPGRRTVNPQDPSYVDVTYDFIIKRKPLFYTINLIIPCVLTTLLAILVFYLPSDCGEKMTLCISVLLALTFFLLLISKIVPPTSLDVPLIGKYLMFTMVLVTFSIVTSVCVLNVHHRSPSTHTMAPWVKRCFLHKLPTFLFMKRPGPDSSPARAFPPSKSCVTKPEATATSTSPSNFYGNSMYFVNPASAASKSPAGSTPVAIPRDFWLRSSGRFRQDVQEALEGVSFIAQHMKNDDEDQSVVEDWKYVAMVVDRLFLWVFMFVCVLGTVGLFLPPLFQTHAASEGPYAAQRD

T1 sequence (P30926 whole entry, looked up): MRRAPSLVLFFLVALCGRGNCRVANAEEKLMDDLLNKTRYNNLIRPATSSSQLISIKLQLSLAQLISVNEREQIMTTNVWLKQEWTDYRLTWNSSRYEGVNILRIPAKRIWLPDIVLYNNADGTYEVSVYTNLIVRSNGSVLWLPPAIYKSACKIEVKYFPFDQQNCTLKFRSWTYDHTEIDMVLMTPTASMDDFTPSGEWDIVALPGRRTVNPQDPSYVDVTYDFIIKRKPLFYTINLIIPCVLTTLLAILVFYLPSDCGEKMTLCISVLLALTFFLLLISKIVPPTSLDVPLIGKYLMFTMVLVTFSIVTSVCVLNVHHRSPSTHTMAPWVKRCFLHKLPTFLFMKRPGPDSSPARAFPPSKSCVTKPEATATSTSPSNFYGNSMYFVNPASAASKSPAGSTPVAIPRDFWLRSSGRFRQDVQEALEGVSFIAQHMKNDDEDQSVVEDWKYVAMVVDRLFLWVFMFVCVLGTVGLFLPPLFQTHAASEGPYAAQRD
T1 sequence (P32297 whole entry, looked up): as the sequence (P32297 whole entry, looked up) above
T1 sequence (Q15825 whole entry, looked up): as the sequence (Q15825 whole entry, looked up) above

As to `CC(C)C[C@@H]1NC(=O)[C@H](C(C)C)NC(=O)[C@H](C)NC(=O)[C@@H]2CSSC[C@H](NC(=O)CN)C(=O)N[C@@H](CSSC[C@@H](C(N)=O)NC(=O)[C@H](Cc3ccc(O)cc3)NC1=O)C(=O)N[C@@H](CO)C(=O)N[C@@H](C)C(=O)N1C[C@H](O)C[C@H]1C(=O)N1CCC[C@H]1C(=O)N2` [BuIA[T5A,P6O]] (H-GCCSA[Hyp]PCAVLYC-NH2; disulfide 2-8, 3-13), on human α6/α3β4 nAChR, the IC50 (in general, the midpoint of a concentration-inhibition curve) is 11.1 nM and the “fold selectivity, α6/α3β4 over α6/α3β2β3 (IC50 ratio)” value is more than 900 fold. Further, on human α6/α3β2β3 nAChR, the concentration for half-maximal inhibition (IC50) is more than 10000 nM.

Regarding `CC(C)C[C@@H]1NC(=O)[C@H](C)NC(=O)[C@@H]2CSSC[C@H](NC(=O)CN)C(=O)N[C@@H](CSSC[C@@H](C(N)=O)NC(=O)[C@H](C)NC(=O)[C@H](CC(N)=O)NC(=O)[C@H](CO)NC(=O)[C@H](Cc3cnc[nH]3)NC(=O)[C@H](CCC(=O)O)NC1=O)C(=O)N[C@@H](CO)C(=O)N[C@@H](CC(N)=O)C(=O)N1CCC[C@H]1C(=O)N[C@@H](C(C)C)C(=O)N2` [MII[H9A,L15A]] (H-GCCSNPVCALEHSNAC-NH2; disulfide 2-8, 3-16), the IC50 against human α6/α3β4 nAChR worked out at 13.3 nM; on human α3β4 nAChR, 1400 nM.
